This assay has as its target T1, KCNQ2/3 channels (Homo sapiens, UniProt O43525+O43526).
T1 construct: expressed in transfected cells; host or cells: CHO-K1 cells kept under selection antibiotics
Briefly: Fluorescence assay using a voltage sensitive dye (fluorimetry). The format is cell-based. The note with it: CHO-K1 cells expressing KCNQ2/3 channels; for Emax: relative to retigabine = 100%, read-out: Fluorimetry % efficacy (retigabine = 100%); for EC50: voltage-sensitive dye, read-out: Fluorimetry EC50/IC50. As for the experimental part: Method I. Fluorescence Assay Using a Voltage Sensitive Dye (Fluorimetry) […] CHO-K1 cells expressing KCNQ2/3 channels are cultivated adherently at 37° C., 5% CO2 and 95% humidity in cell culture bottles (e.g. 80 cm^2 TC flasks, Nunc) with DMEM-high glucose (Sigma Aldrich, D7777) including 10% FCS (PAN Biotech, e.g. 3302-P270521) or alternatively MEM Alpha Medium (1×, liquid, Invitrogen, #22571), 10% fetal calf serum (FCS) (Invitrogen, #10270-106, heat-inactivated) and the necessary selection antibiotics.
Before being sown out for the measurements, the cells are washed with 1×DPBS buffer Ca^2+/Mg^2+-free (e.g. Invitrogen, #14190-094) and detached from the bottom of the culture vessel by using Accutase (PAA Laboratories, #L11-007) (incubation with Accutase for 15 min at 37° C.). The cell number is determined using a CASY™ cell counter (TCC, Scharfe System). Depending on the optimal density for each individual cell line, 20,000-30,000 cells/well/100 μl are seeded onto 96-well Corning™ CeIIBIND™ assay plates (Flat Clear Bottom Black Polystyrene Microplates, #3340). Freshly seeded cells are then left to settle for one hour at room temperature, followed by incubation for 24 hours at 37° C., 5% CO2 and 95% humidity.
The voltage-sensitive fluorescent dye from the Membrane Potential Assay Kit (Red™ Bulk format part R8123 for FLIPR, MDS Analytical Technologies™) is prepared by dissolving the contents of one vessel Membrane Potential Assay Kit Red Component A in 200 ml of extracellular buffer (ES buffer, 120 mM NaCl, 1 mM KCl, 10 mM HEPES, 2 mM CaCl2, 2 mM MgCl2, 10 mM glucose; pH 7.4). After removal of the nutrient medium, the cells are washed once with 200 μl of ES buffer, then loaded for 45 min at room temperature in 100 μl of dye solution in the dark.
Fluorescence measurements are carried out in a BMG Labtech FLUOstar™, BMG Labtech NOVOstar™ or BMG Labtech POLARstar™ instrument (525 nm excitation, 560 nm emission, Bottom Read mode). After incubation with the dye, 50 μl of the test substances in the desired concentrations, or 50 μl of ES buffer for control purposes, are applied to the wells of the assay plate and incubated for 30 min at room temperature while being shielded from light. The fluorescence intensity of the dye is then measured for 5 min and the fluorescence value F1 of each well is thus determined at a given, constant time. 15 μl of a KCl solution are then added to each well (final concentration of potassium ions 92 mM). The change in fluorescence intensity is subsequently monitored until all the relevant values have been obtained (mainly 5-30 min). At a given time post KCl application, a fluorescence value F2 is determined, in this case at the time of the fluorescence peak.
For calculation, the fluorescence intensity F2 is corrected for the fluorescence intensity F1, and the activity (ΔF/F) of the target compound on the potassium channel is determined as follows:
In order to determine whether a substance has agonistic activity, is determined by adding to the well only the buffer solution instead of the test substance, determining the value F1K of the fluorescence intensity, adding the potassium ions as described above, and measuring a value F2K of the fluorescence intensity. F2K and F1K are then calculated as follows: […]
A substance has an agonistic activity on the potassium channel if it is possible to conclude that a target compound has agonistic activity if Calculations of EC50 and IC50 values are carried out with the aid of ‘Prism v4.0’ software (GraphPad Software™).

This is an account of results in US20140148454A1, “SUBSTITUTED AMINO-ACRYLCARBOXAMIDES AS KCNQ2/3 MODULATORS” (GRÜNENTHAL GMBH, priority 2012, published 2014).

Regarding `CCSc1nc(N2CCOCC2)nc(C)c1C(=O)NCc1ccc(Cl)cc1` [Example 1, N-[(4-Chlorophenyl)-methyl]-4-ethylsulfanyl-6-methyl-2-morpholin-4-yl-pyrimidine-5-carboxylic acid amide], the Emax was determined as 137% and the EC50 was 136 nM.

On to `COc1nc(N2CCOCC2)nc(OC)c1C(=O)NCc1ccc(Cl)cc1` [Example 2, N-[(4-Chlorophenyl)-methyl]-4,6-dimethoxy-2-morpholin-4-yl-pyrimidine-5-carboxylic acid amide], for which the Emax stood at 147% and the EC50 worked out at 315 nM.

For the molecule `CCSc1cc(N2CCOCC2)nc(C)c1C(=O)NCc1ccc(Cl)cc1` [Example 3, N-[(4-Chlorophenyl)-methyl]-4-ethylsulfanyl-2-methyl-6-morpholin-4-yl-pyridine-3-carboxylic acid amide], the Emax is 171% and the EC50 turned out to be 564 nM.

Take `CCOc1cc(N2CCOCC2)nc(C)c1C(=O)NCCCC(C)(C)C` [Example 5, N-(4,4-Dimethyl-pentyl)-4-ethoxy-2-methyl-6-morpholin-4-yl-pyridine-3-carboxylic acid amide]: the Emax is 218% and the EC50 stood at 1350 nM.

Take `CC(C)c1nc(N2CCOCC2)cnc1C(=O)NCc1ccc(Cl)cc1` [Example 7, N-[(4-Chlorophenyl)-methyl]-3-isopropyl-5-morpholin-4-yl-pyrazine-2-carboxylic acid amide]: the Emax came out at 109% and the EC50 is 482 nM.

As to `CC(C)c1nc(N(C)C2CCOCC2)sc1C(=O)NC(C)c1cccc(OC(F)(F)F)c1` (centres unmarked) [Example 9, 4-Isopropyl-2-(methyl-tetrahydro-pyran-4-yl-amino)-N-[1-[3-(trifluoromethyloxy)-phenyl]ethyl]-thiazole-5-carboxylic acid amide], the Emax turned out to be 104% and the EC50 was determined as 379 nM.

`CCSc1nc(N2CCOCC2)nc(C)c1C(=O)NCc1cccc(F)c1` [Example 10, 4-Ethylsulfanyl-N-[(3-fluorophenyl)-methyl]-6-methyl-2-morpholin-4-yl-pyrimidine-5-carboxylic acid amide]: the Emax came out at 165% and the EC50 was found to be 140 nM.

Regarding `CCSc1cc(N2CCOCC2)nc(C)c1C(=O)NCc1ccc(F)cc1` [Example 12, 4-Ethylsulfanyl-N-[(4-fluorophenyl)-methyl]-2-methyl-6-morpholin-4-yl-pyridine-3-carboxylic acid amide], the Emax came to 145% and the EC50 was 1470 nM.

On to `CCSc1cc(N2CCOCC2)nc(C)c1C(=O)NCCCC(C)(C)C` [Example 13, N-(4,4-Dimethyl-pentyl)-4-ethylsulfanyl-2-methyl-6-morpholin-4-yl-pyridine-3-carboxylic acid amide], for which the Emax was determined as 241% and the EC50 came out at 319 nM.

For `CCSc1cc(N2CCOC[C@H]2C)nc(C)c1C(=O)NCc1ccc(Cl)cc1` [Example 14, N-[(4-Chlorophenyl)-methyl]-4-ethylsulfanyl-2-methyl-6-[(3R)-3-methyl-morpholin-4-yl]-pyridine-3-carboxylic acid amide], the Emax came to 176% and the EC50 came to 194 nM.

`CCSc1cc(N2CCOC[C@H]2C)nc(C)c1C(=O)NCCCC(C)(C)C` [Example 15, N-(4,4-Dimethyl-pentyl)-4-ethylsulfanyl-2-methyl-6-[(3R)-3-methyl-morpholin-4-yl]-pyridine-3-carboxylic acid amide]: the Emax stood at 247% and the EC50 is 82 nM.

Consider `Cc1nc(N2CCOCC2)cc(C2CC2)c1C(=O)NCc1ccc(Cl)cc1` [Example 16, N-[(4-Chlorophenyl)-methyl]-4-cyclopropyl-2-methyl-6-morpholin-4-yl-pyridine-3-carboxylic acid amide], for which the Emax came to 178% and the EC50 came to 1420 nM.

Take `Cc1nc(N2CCOCC2)cc(C(C)C)c1C(=O)NCc1ccc(Cl)cc1` [Example 17, N-[(4-Chlorophenyl)-methyl]-4-isopropyl-2-methyl-6-morpholin-4-yl-pyridine-3-carboxylic acid amide]: the Emax stood at 180% and the EC50 was found to be 499 nM.

For `CCC(C)c1nc(N2CCOCC2)cnc1C(=O)NCc1ccc(Cl)cc1` (centres unmarked) [Example 20, N-[(4-Chlorophenyl)-methyl]-3-(1-methyl-propyl)-5-morpholin-4-yl-pyrazine-2-carboxylic acid amide], the Emax stood at 88% and the EC50 was 217 nM.

Regarding `CCC(C)c1nc(N2CCOCC2)cnc1C(=O)NCCC1CCCC1` (centres unmarked) [Example 21, N-(2-Cyclopentyl-ethyl)-3-(1-methyl-propyl)-5-morpholin-4-yl-pyrazine-2-carboxylic acid amide], the Emax amounted to 132% and the EC50 amounted to 1050 nM.

`CC(C)c1nc(N(C)CC2CCOCC2)sc1C(=O)NC(C)c1cccc(OC(F)(F)F)c1` (centres unmarked) [Example 22, 4-Isopropyl-2-[methyl-(tetrahydro-pyran-4-yl-methyl)-amino]-N-[1-[3-(trifluoromethyloxy)-phenyl]-ethyl]-thiazole-5-carboxylic acid amide]: the Emax turned out to be 78% and the EC50 was 459 nM.

For `CC(C)c1nc(N(C)C2CCOCC2)sc1C(=O)NCc1ccc(Cl)cc1` [Example 23, N-[(4-Chlorophenyl)-methyl]-4-isopropyl-2-(methyl-tetrahydro-pyran-4-yl-amino)-thiazole-5-carboxylic acid amide], the Emax came out at 98% and the EC50 worked out at 1140 nM.

Regarding `CC(C)c1nc(N2CCOCC2)sc1C(=O)NCc1ccc(Cl)cc1` [Example 25, N-[(4-Chlorophenyl)-methyl]-4-isopropyl-2-morpholin-4-yl-thiazole-5-carboxylic acid amide], the Emax worked out at 48% and the EC50 came to 1260 nM.

Consider `CC(NC(=O)c1sc(N(C)C2CCOCC2)nc1C(F)(F)F)c1cccc(OC(F)(F)F)c1` (centres unmarked) [Example 35, 2-(Methyl-tetrahydro-pyran-4-yl-amino)-4-(trifluoromethyl)-N-[1-[3-(trifluoromethyloxy)-phenyl]-ethyl]-thiazole-5-carboxylic acid amide], for which the Emax worked out at 131% and the EC50 is 1260 nM.

As for `CN(c1nc(C(F)(F)F)c(C(=O)NCc2cccc(OC(F)(F)F)c2)s1)C1CCOCC1` [Example 36, 2-(Methyl-tetrahydro-pyran-4-yl-amino)-4-(trifluoromethyl)-N-[[3-(trifluoromethyloxy)-phenyl]-methyl]-thiazole-5-carboxylic acid amide], the Emax is 125% and the EC50 was found to be 1100 nM.

For `CN(c1nc(C(F)(F)F)c(C(=O)NCc2ccc(Cl)cc2)s1)C1CCOCC1` [Example 38, N-[(4-Chlorophenyl)-methyl]-2-(methyl-tetrahydro-pyran-4-yl-amino)-4-(trifluoromethyl)-thiazole-5-carboxylic acid amide], the Emax is 102% and the EC50 was found to be 1260 nM.

In the case of `CC(NC(=O)c1sc(N2CCOCC2)nc1C(F)(F)F)c1cccc(OC(F)(F)F)c1` (centres unmarked) [Example 40, 2-Morpholin-4-yl-4-(trifluoromethyl)-N-[1-[3-(trifluoromethyloxy)-phenyl]ethyl]-thiazole-5-carboxylic acid amide], the Emax stood at 78% and the EC50 was 1280 nM.
